Test results published in patent publication US8338565B2, “Macrocyclic compounds for inhibition of tumor necrosis factor alpha” (Ensemble Therapeutics Corporation, priority 2008, dated 2012).
Numbered stars: 1 amine (or outer) side, 2 acyl side, 3 side chain; on linkers, the order of the positions; unused ones are H or OH. Bridge positions count the residues as written; N and C are the ends. Square brackets hold non-standard residues; d marks the D form. Peptide text beside a SMILES is read from it. Bip = N[C@@H](Cc1ccc(-c2ccccc2)cc1)C(=O)O; Phe(4-NH2) = Nc1ccc(C[C@H](N)C(=O)O)cc1; d(hPhe) = N[C@H](CCc1ccccc1)C(=O)O; Suc = O=C(CCC(=O)[*:2])[*:1]

Legend:
[1] = tested on: rat paw edema model; experiment: Rat paw edema model (carrageenan), anti-inflammatory activity; assay type: in vivo, Sprague-Dawley (SD) rats
Method: Compounds 3, 4, 10 and 202 were tested in a rat paw edema model to determine anti-inflammatory activity. Seven groups (one for Vehicle A [15 mL PEG400, 3 mL Graves Grain alcohol (190 proof), 1.8 mL dimethylacetamide and 10.2 mL deionized water] alone as a negative control, one for Vehicle B [0.1M NaHCO3] alone as a negative control, one for each of the four test compounds dissolved in Vehicle A, and one for indomethacin dissolved in Vehicle B as a positive control), each group containing six Sprague-Dawley (SD) rats (180-200 g) randomized by weight. Initial paw volumes were measured by placing the right hind limb of the rat up to the top of the hock in a beaker of water sitting on a scale that had been tared to zero and recording the readout.
Rats were pre-treated with either i) one of the test compounds, or ii) a positive or negative control. Vehicle A alone and test compound dissolved in Vehicle A (Compound 3-1.0 mg/kg; Compound 4-0.4 mg/kg; Compound 10-0.5 mg/kg; Compound 202-0.3 mg/kg) were administered by intravenous injection. Vehicle B alone and indomethacin (5 mg/kg in 0.1M NaHCO3) was administered by intraperitoneal injection. Thirty minutes after this pretreatment, rats were anesthetized and injected with 0.1 mL of carrageenan (10 mg/mL in water) in the subplantar region of the right hind foot using a ½ inch 26 gauge needle attached to a 1 cc syringe.
At 2, 4 and 6 hours post-carrageenan injection, the right hind foot of each rat was measured for paw volume as described above.
We next investigated the effect of varying intravenous doses of Compound 202 (0.05, 0.10, 0.30, and 1.00 mg/kg) in the same model using the same protocol (6 rats per group). […] We also investigated the affect of oral dosing (10 mg/kg) of Compound 202 in the same model. For oral dosing, a 2.5 mg/mL suspension of Compound 202 was prepared in Vehicle A. Rats were orally administered 4 mL/kg of that suspension.

[2] = molecular target: T1, TNFα / TNFα receptor (TNFα R1/Fc) (Homo sapiens, UniProt P01375); experiment: Inhibition of binding of TNFα to the TNFα receptor (plate ELISA competition); details: Table 2; read-out: Activity (IC50, inhibition of TNFα binding to TNFα R1/Fc)
T1 construct: purchased R&D Systems
T1 sequence (P01375 77-233 limits assumed, species assumed): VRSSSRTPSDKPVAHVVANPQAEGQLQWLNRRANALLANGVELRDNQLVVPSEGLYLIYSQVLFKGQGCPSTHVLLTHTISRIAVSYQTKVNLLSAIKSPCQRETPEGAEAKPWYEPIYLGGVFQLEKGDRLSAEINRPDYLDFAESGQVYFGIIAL
Summary of the method: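 Plates were coated with TNFα at 15 nM. Test compound and 8.33 nM receptor-Fc (PBST, 2% DMSO) were first mixed in solution for 30 min at room temperature, then transferred to the plates for another 30 min. Competition was read by absorbance at 450 nm after HRP anti-human IgG Fc detection with TMB.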

[3] = tested on: rat paw edema model; experiment: Rat paw edema model (carrageenan), anti-inflammatory activity; assay type: in vivo, Sprague-Dawley (SD) rats; details: Table 10; 3.0 mg/kg PO; 2 h post-carrageenan

## O=C1CCC(=O)N[C@H](CCc2ccccc2)C(=O)N[C@@H](Cc2ccc(-c3ccccc3)cc2)C(=O)N[C@H](Cc2ccccc2)C(=O)N[C@H](C(=O)N[C@@H](Cc2ccccc2)C(=O)O)Cc2ccc(cc2)N1 [Compound 202] ([d(hPhe)][Bip][dF][Phe(4-NH2)]F-OH; linker N-4 via Suc)
[1]; Table 3, 0.3 mg/kg IV, 2 h post-carrageenan
  Change in Paw Volume: 0.42 ± 0.20 mL
[1]; Table 3, 0.3 mg/kg IV, 4 h post-carrageenan
  Change in Paw Volume: 1.01 ± 0.31 mL
[1]; Table 3, 0.3 mg/kg IV, 6 h post-carrageenan
  Change in Paw Volume: 1.16 ± 0.20 mL
[1]; Table 9, 0.05 mg/kg IV, 2 h post-carrageenan
  Change in Paw Volume: 1.20 ± 0.09 mL
[1]; Table 9, 0.05 mg/kg IV, 4 h post-carrageenan
  Change in Paw Volume: 1.56 ± 0.22 mL
[1]; Table 9, 0.05 mg/kg IV, 6 h post-carrageenan
  Change in Paw Volume: 1.67 ± 0.18 mL
[1]; Table 9, 0.1 mg/kg IV, 2 h post-carrageenan
  Change in Paw Volume: 0.99 ± 0.15 mL
[1]; Table 9, 0.1 mg/kg IV, 4 h post-carrageenan
  Change in Paw Volume: 1.41 ± 0.26 mL
[1]; Table 9, 0.1 mg/kg IV, 6 h post-carrageenan
  Change in Paw Volume: 1.62 ± 0.19 mL
[1]; Table 9, 0.3 mg/kg IV, 2 h post-carrageenan
  Change in Paw Volume: 0.70 ± 0.13 mL
[1]; Table 9, 0.3 mg/kg IV, 4 h post-carrageenan
  Change in Paw Volume: 1.09 ± 0.06 mL
[1]; Table 9, 0.3 mg/kg IV, 6 h post-carrageenan
  Change in Paw Volume: 1.15 ± 0.12 mL
[1]; Table 9, 1.0 mg/kg IV, 2 h post-carrageenan
  Change in Paw Volume: 0.60 ± 0.04 mL
[1]; Table 9, 1.0 mg/kg IV, 4 h post-carrageenan
  Change in Paw Volume: 0.98 ± 0.08 mL
[1]; Table 9, 1.0 mg/kg IV, 6 h post-carrageenan
  Change in Paw Volume: 1.14 ± 0.05 mL
[1]; Table 9, 10 mg/kg PO (suspension in Vehicle A), 2 h post-carrageenan
  Change in Paw Volume: 1.12 ± 0.15 mL
[1]; Table 9, 10 mg/kg PO (suspension in Vehicle A), 4 h post-carrageenan
  Change in Paw Volume: 1.35 ± 0.27 mL
[1]; Table 9, 10 mg/kg PO (suspension in Vehicle A), 6 h post-carrageenan
  Change in Paw Volume: 1.42 ± 0.22 mL
[1]; Table 10, 0.3 mg/kg PO, 2 h post-carrageenan
  Change in Paw Volume: 1.49 ± 0.14 mL
[1]; Table 10, 0.3 mg/kg PO, 4 h post-carrageenan
  Change in Paw Volume: 1.59 ± 0013 mL
[1]; Table 10, 0.3 mg/kg PO, 6 h post-carrageenan
  Change in Paw Volume: 1.65 ± 0.10 mL
[1]; Table 10, 1.0 mg/kg PO, 2 h post-carrageenan
  Change in Paw Volume: 1.43 ± 0.18 mL
[1]; Table 10, 1.0 mg/kg PO, 4 h post-carrageenan
  Change in Paw Volume: 1.45 ± 0.16 mL
[1]; Table 10, 1.0 mg/kg PO, 6 h post-carrageenan
  Change in Paw Volume: 1.62 ± 0.14 mL
[1]; Table 10, 3.0 mg/kg PO, 4 h post-carrageenan
  Change in Paw Volume: 1.42 ± 0.09 mL
[1]; Table 10, 3.0 mg/kg PO, 6 h post-carrageenan
  Change in Paw Volume: 1.50 ± 0.09 mL
[1]; Table 10, 10 mg/kg PO, 2 h post-carrageenan
  Change in Paw Volume: 1.17 ± 0.17 mL
[1]; Table 10, 10 mg/kg PO, 4 h post-carrageenan
  Change in Paw Volume: 1.29 ± 0.06 mL
[1]; Table 10, 10 mg/kg PO, 6 h post-carrageenan
  Change in Paw Volume: 1.51 ± 0.06 mL
[2]
  IC50: < 10 µM
[3]
  Change in Paw Volume: 1.25 ± 0.08 mL
